# Source: publication PMC8187357 (Communications Biology, 2021)
# Where “and” joins values, the source holds several entries; their conditions need not be identical. Identical values can stand only once. Like-named read-outs stand apart in the source and are kept apart here.
# Assays:
# Pharmacokinetics in mice = assay type: in vivo, mouse
# Method: Animals in Group 1 were administered with 5% w/v dextrose in water and Group 2 were administered with corresponding formulation listed in the Supplementary Table 6 through oral routes. Blood samples (approximately 40 μl) were collected under light isoflurane anesthesia from submandibular at predose, 0.08 (IV), 0.25, 0.5, 1, 2, 4, 8, and 24 h using sparse sampling technique. Plasma samples were separated by centrifugation of whole blood and stored below −70 °C until bioanalysis. All samples were processed for analysis by protein precipitation and analyzed with fit-for-purpose LC–MS/MS method.
# Sigma = test: CEREP 80 panel binding: Sigma; settings: 10 µM
# Method: (§1) CEREP 80 panel assay was carried out by Eurofins Cerep Panlabs facility at France. A series of binding assays was carried out to understand the off-target toxicity of CA-170. CA-170 was tested at 10 μM test concentration in duplicates. Compound binding was calculated as a % inhibition of the binding of a radioactively labeled ligand specific for each target. In each experiment the respective reference compound was tested concurrently with CA-170, and the data were compared with historical values determined at Eurofins. The experiment was accepted in accordance with Eurofins validation standard operating procedure. The results are expressed as a percent of control specific binding; (measured specific binding / control specific binding) × 100 and as a percent inhibition of control specific binding; 100−(measured specific binding / control specific binding) × 100 obtained in the presence of CA-170. The IC50 values (concentration causing a half-maximal inhibition of control specific binding) and Hill coefficients (nH) were determined by non-linear regression analysis of the competition curves generated with mean replicate values using Hill equation curve fitting.
# [1] = biological target: T1, full-length human PD-L1 overexpressed in CHO-K1 cells (Homo sapiens, UniProt Q9NZQ7); test: Cellular NMR (T2) binding, PD-L1 overexpressing CHO-K1 cells; settings: for I/I0 / T2: trials 1-3
# T1 construct: plasmid (pLVX puro-PD-L1; full-length human PD-L1); expressed in transfected cells; host or cells: CHO-K1 (lentiviral transduction)
# T1 sequence (Q9NZQ7 19-290): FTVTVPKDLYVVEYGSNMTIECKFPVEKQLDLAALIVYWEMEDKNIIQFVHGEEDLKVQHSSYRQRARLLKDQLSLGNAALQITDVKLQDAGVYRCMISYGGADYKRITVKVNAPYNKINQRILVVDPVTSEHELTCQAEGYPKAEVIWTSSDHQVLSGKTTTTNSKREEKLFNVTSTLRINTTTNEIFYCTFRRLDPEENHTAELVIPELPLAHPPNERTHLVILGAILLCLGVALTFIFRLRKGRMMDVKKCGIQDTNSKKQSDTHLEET
# Method: HEK293T cells were transfected with plasmid (pLVX puro-PD-L1; full-length human PD-L1) using Lenti-X packaging single shots (Takara Bio, Cat. Nos. 631275) as per the recommended kit protocol in order to generate lentiviral particles. The supernatant collected after 48 h containing the lentiviral particles was used for lentiviral transduction of CHO-K1 cells. The expression of PD-L1 on the CHO-K1 cells was determined by flow cytometry. Limiting dilution cloning was performed to isolate single clones of CHO-K1 cells expressing high levels of PD-L1.
# PD-L1 transfected CHO-K1 cells were cultured in Ham’s F12 K medium (Cat#21127-022, Gibco) containing penicillin & streptomycin antibiotic solution and 10% FBS (cat#SH30071-03, HyClone) along with 4 µg/mL of puromycin (Cat#A11138-03, Gibco), and were grown at 37 °C, 5% CO2 in a humidified atmosphere in tissue culture treated flask. 80–90% confluent cells were detached with PBS containing 2 mM EDTA, counted and washed twice with phosphate-buffered saline, pH 7.4 and re-suspended in PBS(cat#14190-144 Gibco) at a density of 8 million cells per mL. The cell suspension in PBS was transferred in a 5 mm Norell NMR tube containing 5% D2O and NMR experiments were performed under ligand titration. Cells remained viable under these experimental conditions as assessed by Trypan Blue staining method.
# NMR experiments were carried out using Bruker 800 MHz NMR spectrometer fitted with 5 mm TCI cryoprobe. The experiment was performed over 4 × 10^6 cells in 95% 1 X PBS, pH 7.4, after adding 5% (v/v) D2O at constant temperature 298 K employing the pulse sequence shown in Supplementary Fig. 1a. The FID obtained was processed employing TOPSPIN software version 3.5. The interaction studies of CA-170 and overexpressed cells were carried out using a two-point HSQC method by recording the first FID. Briefly, during the transfer of polarization from ^1H to ^13C in the forward INEPT part of the 2D [^13C, ^1H] HSQC experiment, an additional delay of 16 ms is introduced on the proton channel during which the signal decays due to transverse relaxation. A second experiment is recorded with this delay set to […], the experimental parameters used to record these two spectra are given in Supplementary Table 7. A representative NMR spectrum of superimposed first FID of modified 2D [^13C, ^1H] HSQC of CA-170 treatment with PD-L1 overexpressed CHO-K1 cells is shown in Supplementary Fig. 1b.
# The signal at any point of time is related to the initial intensity as follows. I=Ioexp(−Δt/T2) Where Δt is the difference between initial and final time points and I and Io are the final and initial intensity respectively. The transverse relaxation time (T2) of the ligand protons is calculated from the signal intensity ratio obtained from the above experiments by using the following equation which can be obtained from the above relation (Supplementary Table 8). T2=Relaxationdelay(τ)/−log(I/I0) where I = Area of the peak with delay (16 ms delay); I0 = Area of the peak without delay (16 μs delay).
# [2] = Tolerability in the in vivo pharmacological studies (body weights, clinical signs); settings: all in vivo pharmacological studies
# Bombesin BB = test: CEREP 80 panel binding: Bombesin; settings: 10 µM
# Method: as §1
# [3] = CA-170 5.0 µM, PD-L1 overexpressed CHO-K1
# [4] = CA-170 7.5 μM, PD-L1 Overexpressed CHO-K1
# [5] = CA-170 10.0 μM, PD-L1 Overexpressed CHO-K1
# [6] = CA-170 15.0 μM, PD-L1 Overexpressed CHO-K1
# [7] = CA-170 20.0 μM, PD-L1 Overexpressed CHO-K1
# [8] = CA-170 40.0 μM, PD-L1 Overexpressed CHO-K1
compound,measurement,setting,value
C[C@@H](O)[C@H](NC(=O)N[C@@H](CC(N)=O)c1nc([C@@H](N)CO)no1)C(=O)O [CA-170],AUC,"Pharmacokinetics in mice; male, CD-1, mouse, plasma, mice, intravenous 1 mg kg−1, read-out: Mice PK parameters AUCi iv(0-α)",4200 ng·h/mL
same,clearance,"Pharmacokinetics in mice; male, CD-1, mouse, plasma, mice, intravenous 1 mg kg−1, read-out: Mice PK parameters Clearance (converted)",12.1 mL/min/kg
same,bioavailability,"Pharmacokinetics in mice; male, CD-1, mouse, plasma, mice, iv 1 mg kg−1, oral 30 mg kg−1, read-out: Mice PK parameters % F",50%
same,AUC,"Pharmacokinetics in mice; male, CD-1, mouse, plasma, mice, oral 30 mg kg−1, read-out: Mice PK parameters AUC po (0-α)",19600 ng·h/mL
same,Cmax,"Pharmacokinetics in mice; male, CD-1, mouse, plasma, mice, oral 30 mg kg−1, read-out: Mice PK parameters Cmax",1720 ng/mL
same,half-life,"Pharmacokinetics in mice; male, CD-1, mouse, plasma, preclinical PK exposure",3.4 h
same,oral bioavailability (in words),"Pharmacokinetics in mice; mouse, in vivo, po",good oral bioavailability
same,% Inhibition of Control Specific Binding,Sigma,20%
same,I/I0,[1]; [3],0.34 and 0.35
same,T2,[1]; [3],29.67 mS and 35.08 mS and 33.97 mS
same,I/I0,[1]; [4],0.43 and 0.4 and 0.49
same,T2,[1]; [4],43.70 mS and 51.60 mS and 41.00 mS
same,I/I0,[1]; [5],0.45 and 0.47 and 0.39
same,T2,[1]; [5],46.10 mS and 48.48 mS and 38.70 mS
same,I/I0,[1]; [6],0.55 and 0.48 and 0.49
same,T2,[1]; [6],61.50 mS and 50.00 mS and 52.00 mS
same,I/I0,[1]; [7],0.57 and 0.53 and 0.51
same,T2,[1]; [7],66.12 mS and 58.18 mS and 55.36 mS
same,I/I0,[1]; [8],0.58 and 0.55 and 0.57
same,T2,[1]; [8],67.51 mS and 61.50 mS and 66.67 mS
same,binding to PD-L1 overexpressed in the cellular context (in words),[1]; cell-based NMR,specific interaction of CA-170 to PD-L1
same,"tolerability (body weights, clinical signs; in words)",[2],well tolerated
same,% Inhibition of Control Specific Binding,Bombesin BB,< 0%
